In patent US11123378B2, “Compositions comprising bacterial strains” (4D Pharma Research Limited, priority 2017, dated 2021):

System: cerebral tissues in the cerebral ischemia-reperfusion I/R model in mice
Assay: Histological evaluation (H&E) of cerebral tissues in the cerebral ischemia-reperfusion I/R model
Type: in vivo
Conditions: right hemisphere hippocampus; termination day 15 or day 29; compared to PBS negative control (2M)
Source text: At termination of the experiment, at either day 15 or day 29, the mice cerebral tissues were subjected to histopathological examinations.
The tissues were studied for pyknotic score (which assesses the extent of cell necrosis and death) and for vacuolisation (which assesses the extent of degeneration similar to apoptosis).
At termination the animals were sacrificed by CO2 asphyxiation. Where possible, half of the animals were sacrificed on day 15, and the other half were sacrificed on day 29. […] Brains were also harvested following saline perfusion. The right hemisphere of each brain was fixed with 2.5% Paraformaldehyde and stored at 2-8° C.
The sections of the right hemisphere of all animals per group were loaded onto slides followed by histological examination. Tissues were trimmed, embedded in paraffin, sectioned at approximately 5 microns thickness and stained with Hematoxylin & Eosin (H&E) (as well as with TUNEL reagents) using standardized protocols. The slides were examined under a light microscope. […]
The numbers of karyopy-knosis and apoptotic cells were counted, and the mean values were calculated. […] Ten field of ×20 magnifications were evaluated for the pyknosis and vacuolization score as follows.
Pyknosis and vacuolization, semi-quantitative scores: • 1. […]
A score was determined for each field of ×20 magnification for each mouse in a given sample group.

Structure (SMILES): C[C@]12N[C@H](Cc3ccccc31)c1ccccc12 [MK-801]
- semi-quantitative pyknosis score (H&E): reduced pyknosis score
- semi-quantitative vacuolisation score (H&E): did not reduce the vacuolisation score
